Assay results taken from ChEMBL document CHEMBL6109033, “Design and synthesis of novel antioxidants derived from chalcones and their protective effects on cardiomyocytes by activating Nrf2/HO-1 pathway” (Bioorg Med Chem Lett, 2025).
The source made the active and inactive calls. The calls are words filed in the database; no cut-off is given here.

Tests used:
H9c2 [1] = assay: Antioxidant activity against H2O2-induced oxidative stress in rat H9c2 cells assessed as cell viability at 5 uM pretreated with compounds for 18 hrs followed by H2O2 stimulation for 24 hrs by MTT assay; type: functional, cell-based; details: time 42.0 hrs
H9c2 [2] = assay: Cytoprotective activity against H2O2-induced oxidative stress in rat H9c2 cells assessed as inhibition of cell viability pretreated with compounds for 18 hrs followed by H2O2 stimulation for 24 hrs by MTT assay; type: functional, cell-based; details: dose 0.625-5 µM, time 42.0 hrs
H9c2 [3] = assay: Cytoprotective activity against high glucose-induced oxidative stress in rat H9c2 cells assessed as inhibition of cell viability pretreated with compounds for 18 hrs followed by H2O2 stimulation for 24 hrs by MTT assay; type: functional, cell-based; details: dose 0.625-5 µM, time 42.0 hrs
H9c2 [4] = assay: Cytoprotective activity against H2O2-induced rat H9c2 cells assessed as reversal of colony formation inhibition by colony formation assay; type: functional, cell-based; details: dose 1.25-5 µM
H9c2 [5] = assay: […] of H2O2-induced oxidative stress in rat H9c2 cells assessed as decrease in MDA level pretreated with compounds for 18 hrs followed by H2O2 stimulation for 2 hrs by MDA assay; type: functional, cell-based; details: dose 1.25-5 µM, time 20.0 hrs
H9c2 [6] = assay: Inhibition of H2O2-induced oxidative stress in rat H9c2 cells assessed as reduction intracellular ROS level pretreated with compounds for 18 hrs followed by H2O2 stimulation for 2 hrs by DCFH-DA based fluorescence microscopic analysis; type: functional, cell-based; details: dose 1.25-5 µM, time 20.0 hrs
H9c2 [7] = assay: Activation of Nrf2 nuclear translocation in rat H9c2 cells assessed as increase in accumulation of Nrf2 in nucleus at 10 uM incubated for 6 hrs by DAPI staining based fluorescence microscopic analysis; type: cell-based; details: filed as activator
H9c2 [8] = assay: Upregulation of HO-1 protein expression in rat H9c2 cells incubated for 18 hrs by Western blot analysis; type: functional, cell-based; details: dose 0.625-2.5 µM
H9c2 [9] = assay: Downregulation of Nrf2 expression in rat H9c2 cells transfected with Nrf2 siRNA at 0.625 uM pretreated with compound for 18 hrs followed by H2O2 stimulation for 24 hrs by Western blot analysis; type: functional, cell-based; details: time 42.0 hrs

COc1ccc(OC)c([C@H]2CN(C)C3(C(=O)Nc4ccc(F)cc43)[C@H]2C(=O)c2ccc(O)c(O)c2)c1 (some centres undefined)
Activity (H9c2 [1]): Active

COc1ccc(OC)c([C@H]2CN(C)C3(C(=O)Nc4ccc(C)cc43)[C@H]2C(=O)c2ccc(O)c(O)c2)c1 (some centres undefined)
Activity (H9c2 [1]): Active

COc1ccc(OC)c([C@H]2CN(C)C3(C(=O)Nc4ccc(OC)cc43)[C@H]2C(=O)c2ccc(O)c(O)c2)c1 (some centres undefined)
Activity (H9c2 [1]): Active

COc1ccc(OC)c([C@H]2CN(C)[C@]3(C(=O)c4cccc5cccc3c45)[C@H]2C(=O)c2ccc(O)c(O)c2)c1
Activity (H9c2 [1]): Active

COc1ccccc1/C=C/C(=O)c1ccc(O)c(O)c1
Activity (H9c2 [1]): Active

COc1ccccc1[C@H]1CN(C)C2(C(=O)Nc3ccc(Br)cc32)[C@H]1C(=O)c1ccc(O)c(O)c1 (some centres undefined)
Activity (H9c2 [1]): Active

COc1ccc2c(c1)C1(C(=O)N2)[C@@H](C(=O)c2ccc(O)c(O)c2)[C@@H](c2ccccc2OC)CN1C (some centres undefined)
Activity (H9c2 [1]): Active | Activity (H9c2 [2]): Dose-dependent-effect | Activity (H9c2 [3]): Dose-dependent-effect | Activity (H9c2 [4]): Dose-dependent-effect | Activity (H9c2 [5]): Dose-dependent-effect | inhibition (H9c2 [6]): Dose-dependent-effect

COc1ccccc1[C@H]1CN(C)C2(C(=O)Nc3ccc(Cl)cc32)[C@H]1C(=O)c1ccc(O)c(O)c1 (some centres undefined)
Activity (H9c2 [1]): Active

COc1ccc(OC)c([C@H]2CN(C)C3(C(=O)Nc4ccc(Br)cc43)[C@H]2C(=O)c2ccc(O)c(O)c2)c1 (some centres undefined)
Activity (H9c2 [1]): Active

COc1ccccc1[C@H]1CN(C)C2(C(=O)Nc3ccc(F)cc32)[C@H]1C(=O)c1ccc(O)c(O)c1 (some centres undefined)
Activity (H9c2 [1]): Active

COc1ccc(OC)c([C@H]2CN(C)C3(C(=O)Nc4ccccc43)[C@H]2C(=O)c2ccc(O)c(O)c2)c1 (some centres undefined)
Activity (H9c2 [1]): Active | Activity (H9c2 [2]): Dose-dependent-effect | Activity (H9c2 [3]): Dose-dependent-effect | Activity (H9c2 [4]): Dose-dependent-effect | Activity (H9c2 [5]): Dose-dependent-effect | inhibition (H9c2 [6]): Dose-dependent-effect | Activity (H9c2 [7]): Active | Activity (H9c2 [8]): Dose-dependent-effect | Activity (H9c2 [9]): Active

COc1ccc(OC)c(/C=C/C(=O)c2ccc(O)c(O)c2)c1
Activity (H9c2 [1]): Active

COc1ccc(OC)c([C@H]2CN(C)C3(C(=O)Nc4ccc(Cl)cc43)[C@H]2C(=O)c2ccc(O)c(O)c2)c1 (some centres undefined)
Activity (H9c2 [1]): Active

COc1ccccc1[C@H]1CN(C)C2(C(=O)Nc3ccc(C)cc32)[C@H]1C(=O)c1ccc(O)c(O)c1 (some centres undefined)
Activity (H9c2 [1]): Active

COc1ccccc1[C@H]1CN(C)C2(C(=O)Nc3ccccc32)[C@H]1C(=O)c1ccc(O)c(O)c1 (some centres undefined)
Activity (H9c2 [1]): Active

COc1ccccc1[C@H]1CN(C)[C@]2(C(=O)c3cccc4cccc2c34)[C@H]1C(=O)c1ccc(O)c(O)c1
Activity (H9c2 [1]): Active
